Assay results published in patent US9821173B2, “Anti-cancer agents and methods of use” (Case Western Reserve University, priority 2013, dated 2017).
“And” between values parts separate entries of the source, which are not always exact repeats. Identical values can stand only once.

How the values were obtained:
HeLa cells [1] = assay: Measurements of apoptosis, dual parameter FACS with PI and annexin V; type: cell-based; conditions: 50 μM
Protocol: Cells were plated at 200,000/ml, Au(I)-Indole analogs were added in a dose-dependent fashion for 12-24 hr. Cells were trypsinized and then washed with cold PBS. After discarding the supernatant, a 100 μL solution containing 1× annexin-binding buffer, 5 μl of alexa fluor 488 Annexin V and 1 μg/ml of PI solution was added to each sample. The cells were incubated at room temperature for 15 min. After this incubation period, an additional 400 μl of 1× annexin-binding buffer was added. Cells were analyzed using a band pass filters with wavelengths of 525/40 nm and 620/30 nm with a Beckman Coulter XL flow cytometer.

CEM-C7 = assay: Cell proliferation / cytotoxicity assay; type: cell-based; conditions: cell viability, cell-titer blue, up to 48 hours
Protocol: (§1) HeLa, MCF-7, HCT-116, and CEM-C7 were obtained from the American Type Culture Collection (Manassas, Va., USA). All adherent cell lines were maintained in Dulbecco's modified Eagle's medium (Mediatech) with 100 U/ml penicillin (Invitrogen), 100 μg/ml streptomycin (Invitrogen), 0.25 μg/ml amphotericin B (Invitrogen), and 10% fetal bovine serum (USA Scientific) and incubated at 37° C. with 5% CO2. CEM cells were maintained in RPMI-1640 media supplemented with 100 U/ml penicillin, 100 μg/ml streptomycin, 0.25 μg/ml amphotericin B, and 10% fetal bovine serum and incubated at 37° C. with […].
(§2) Cells were plated at a density of 7,000-13,000/well in 200 μl of media overnight in a 96-well plate. Each (phosphine)gold(I)-indole was added to wells in a dose-dependent manner (0.01-100 μM). Cells were treated with compounds for variable time periods (8-48 hours). With adherent cell lines, medium was removed from the wells and then 100 μl of fresh medium was added into each well followed by the addition of 20 μl of cell titer-blue reagent (Promega). Cells were incubated with reagent for 1-4 hrs and the optical density of samples was read at 560 nm using a microplate reader. The background absorbance of dye with media was subtracted from each sample. Cell viability was then normalized against cells treated with DMSO. IC50 values were obtained using a fit of the data to Equation 1: Y=100%/[1+(IC50/Inhibitor)] (1)
(§3) where y is the fraction of viable cells, IC50 is the concentration of inhibitor that inhibits 50% cell growth, and Inhibitor is the concentration of compound tested.
(§4) The cellular effects of these (phosphine)gold(I) indoles were tested against several cancer cell lines including HeLa (cervical cancer), MCF-7 (breast cancer), HCT-116 (colon cancer), and CEM-C7 (leukemia). The dose-dependency of each modified indole on cell viability was assessed using a cell-titer blue assay as previously described. In these experiments, cells were exposed to variable concentrations of each (phosphine)gold(I) indole (0.01-100 μM) for up to 48 hours and then assessed for viability.
Defining this mechanism of cell death is important as necrosis can cause various side-effects including septic shock and kidney failure that can obviously compromise patient health.

HeLa cells [2] = conditions: for fold more sensitive to IR exposure than cells treated with IR alone: HeLa pre-treated 24 hour with compound 3 (4 μM) or compound 4 (7 μM)
Protocol: HeLa cells were plated at a density of 250,000-300,000 cells/mL. After 24 hr cells, the cells were irradiated in a dose dependent manner (0-4 Gy) using a ^137Cs gamma source. After treatment, the cells were trypsinized and plated at a density between 300-4000 cells in 60 mm dishes. Cells were allowed to grow colonies (1 colony≧50 cells) for 10-14 days, stained with 0.25% crystal violet, and manually counted to measure the number of colonies. Survival fractions were normalized against positive controls (colony formation with no radiation) and plotted as the log percent survival versus dose of radiation. Each experiment was performed an average of four (4) times with cells propagated on several different days.
In this case, we measured the effects of combining these (phosphine)gold(I) indoles with ionizing radiation (IR), a widely used therapy used to treat solid tumors. […] After this time frame, media containing the (phosphine)gold(I) indole was removed and replaced with fresh media. The cells were then irradiated in a dose-dependent fashion from 0 to 6 Gy. Cell viability was assessed using a clonogenic assay that measures colony formation and thus accurately defines the cytotoxic effects of IR exposure. […] The initial linear phase is particularly important as this reflects repair of non-lethal damage inflicted by clinically-relevant doses of IR (˜2 Gy).

HCT-116 = assay: Cell proliferation assay (cell-titer blue); type: cell-based; conditions: cell viability, up to 48 hours, read-out: IC50 HCT116
Protocol: as §1, §2, §3, §4

HeLa = assay: Cell proliferation assay (cell-titer blue); type: cell-based; conditions: cell viability, cell-titer blue, up to 48 hours
Protocol: as §1, §2, §3, §4

MCF-7 = assay: Cell proliferation assay (cell-titer blue); type: cell-based; conditions: cell viability, up to 48 hours
Protocol: as §1, §2, §3, §4

γH2AX foci in HeLa cells = conditions: 2 Gy IR, compound 4 7 μM; for number of γH2AX foci 30 minutes post IR exposure: compound 3 4 μM
Protocol: HeLa cells were plated at a density of 40,000 cells/ml in 24-well glass bottom plate for 24 hr. After this time, cells were treated with Au(I)indole compounds at desired concentration for an additional 24 hr. The cells were irradiated at 2 Gys. Cells were fixed with 4% paraformaldehyde for 15 min at 37° C. at time points corresponding to 0.5, 1, 2, and 4 hrs. Cells were washed with 1×PBS and permeabilized in 0.2% Triton X-100 for 15 min at 37° C. […] Mouse monoclonal anti-phospho-histone H2AX antibody (Millipore) was applied (1:500 dilution) to each well for one hour. After washing several times with blocking buffer, a 1:500 dilution of goat anti-mouse secondary antibody conjugated with Alexa 647 (Invitrogen) was added for 1 hr. The wells were then washed several times, and the number of γH2AX foci per nuclei was measured using an iCyte laser scanning cytometer with a red long pass filter (650 nm). To collect accurate data, a threshold was set to minimize noise produced by unrelated events using iNovator software (version 3.4.2.52). Each well was scanned using a 40× magnification with 0.25 μm× step and a field size of 250×186 μm (1000×768 pixels). Data were plotted as the percentage of cells as a function of foci number. The resulting histogram was fit to the equation for a Gaussian distribution (Equation 2). Y=1/(2πσ^2)^1/2e^−[(χ−m)2/2σ2] (2)
where Y is the percentage of cells, μ is the mean, and σ is the variance used to define the width of the mean.

PDGFRB = biological target: T1, PDGFRB (Homo sapiens, UniProt P09619); assay: Kinase inhibition screening (Luceome); type: biochemical; conditions: 10 μM
T1 construct: purchased Luceome Biotechnologies (Tucson, Ariz.)
T1 sequence (P09619 33-1106): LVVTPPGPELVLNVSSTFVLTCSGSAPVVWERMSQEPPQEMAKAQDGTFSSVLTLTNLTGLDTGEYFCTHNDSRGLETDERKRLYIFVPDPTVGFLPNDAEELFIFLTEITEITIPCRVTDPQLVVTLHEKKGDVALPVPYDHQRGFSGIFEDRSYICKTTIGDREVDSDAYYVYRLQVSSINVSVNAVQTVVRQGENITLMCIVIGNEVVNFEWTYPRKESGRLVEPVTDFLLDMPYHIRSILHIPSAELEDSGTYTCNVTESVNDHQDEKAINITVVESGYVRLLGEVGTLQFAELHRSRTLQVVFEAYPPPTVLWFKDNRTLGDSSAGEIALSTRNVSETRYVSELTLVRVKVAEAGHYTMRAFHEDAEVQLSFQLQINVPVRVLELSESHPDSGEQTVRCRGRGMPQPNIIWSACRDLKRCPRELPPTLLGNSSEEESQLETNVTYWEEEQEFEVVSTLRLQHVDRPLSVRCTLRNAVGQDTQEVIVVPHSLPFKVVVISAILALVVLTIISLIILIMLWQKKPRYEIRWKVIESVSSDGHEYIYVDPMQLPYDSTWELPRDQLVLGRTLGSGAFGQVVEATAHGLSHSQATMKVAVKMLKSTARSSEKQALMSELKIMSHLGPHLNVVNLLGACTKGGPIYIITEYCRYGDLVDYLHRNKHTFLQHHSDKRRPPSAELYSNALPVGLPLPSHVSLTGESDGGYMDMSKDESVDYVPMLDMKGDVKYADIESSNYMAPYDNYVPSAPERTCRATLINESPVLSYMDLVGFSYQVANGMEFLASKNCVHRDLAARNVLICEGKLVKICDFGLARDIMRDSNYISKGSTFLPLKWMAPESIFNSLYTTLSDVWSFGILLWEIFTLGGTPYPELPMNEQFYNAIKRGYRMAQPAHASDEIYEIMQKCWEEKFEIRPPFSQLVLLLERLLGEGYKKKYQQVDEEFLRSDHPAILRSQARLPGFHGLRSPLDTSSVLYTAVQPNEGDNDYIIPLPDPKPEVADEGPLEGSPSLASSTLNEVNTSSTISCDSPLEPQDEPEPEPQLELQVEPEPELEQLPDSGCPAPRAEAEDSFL
Text: (§5) It is well established that dysfunctional and unregulated kinase activity plays significant roles in cancer initiation and progression. […] Inspection of the data provides several interesting observations. […] These inhibitory effects at this concentration are consistent with their measured IC50 values that are also in the μM range (Table 1). In addition, several kinases display overlapping inhibitory responses to both gold(I) compounds. Many of these are of particular interest since they are involved in cancer initiation and/or progression. For example, the Aurora kinase family members, Aurora A and Aurora B, as well as the MARK2 and MARK3 kinases function during mitosis to regulate cell division. These kinases are important therapeutic targets as their activities are often deregulated in many types of cancers. Other kinases such as RPS6KA3 and MLK3 are involved in the MAP kinase and JNK pathways which are also important in cancer progression.

AURKB = biological target: T2, AURKB (Homo sapiens, UniProt Q96GD4); assay: Kinase inhibition screening (Luceome); type: biochemical; conditions: 10 μM
T2 construct: purchased Luceome Biotechnologies (Tucson, Ariz.)
T2 sequence (Q96GD4 whole entry): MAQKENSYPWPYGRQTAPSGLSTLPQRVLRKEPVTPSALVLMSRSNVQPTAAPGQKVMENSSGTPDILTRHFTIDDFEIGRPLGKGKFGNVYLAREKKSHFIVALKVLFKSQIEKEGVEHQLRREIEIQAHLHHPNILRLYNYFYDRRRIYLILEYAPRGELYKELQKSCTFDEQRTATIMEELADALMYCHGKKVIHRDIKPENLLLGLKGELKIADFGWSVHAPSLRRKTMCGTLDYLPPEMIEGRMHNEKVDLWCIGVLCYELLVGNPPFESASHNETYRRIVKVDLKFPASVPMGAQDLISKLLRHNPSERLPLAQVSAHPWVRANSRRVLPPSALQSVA
Text: as §5

CAMKK2 = biological target: T3, CAMKK2 (Homo sapiens, UniProt Q96RR4); assay: Kinase inhibition screening (Luceome); type: biochemical; conditions: 10 μM
T3 construct: purchased Luceome Biotechnologies (Tucson, Ariz.)
T3 sequence (Q96RR4 whole entry): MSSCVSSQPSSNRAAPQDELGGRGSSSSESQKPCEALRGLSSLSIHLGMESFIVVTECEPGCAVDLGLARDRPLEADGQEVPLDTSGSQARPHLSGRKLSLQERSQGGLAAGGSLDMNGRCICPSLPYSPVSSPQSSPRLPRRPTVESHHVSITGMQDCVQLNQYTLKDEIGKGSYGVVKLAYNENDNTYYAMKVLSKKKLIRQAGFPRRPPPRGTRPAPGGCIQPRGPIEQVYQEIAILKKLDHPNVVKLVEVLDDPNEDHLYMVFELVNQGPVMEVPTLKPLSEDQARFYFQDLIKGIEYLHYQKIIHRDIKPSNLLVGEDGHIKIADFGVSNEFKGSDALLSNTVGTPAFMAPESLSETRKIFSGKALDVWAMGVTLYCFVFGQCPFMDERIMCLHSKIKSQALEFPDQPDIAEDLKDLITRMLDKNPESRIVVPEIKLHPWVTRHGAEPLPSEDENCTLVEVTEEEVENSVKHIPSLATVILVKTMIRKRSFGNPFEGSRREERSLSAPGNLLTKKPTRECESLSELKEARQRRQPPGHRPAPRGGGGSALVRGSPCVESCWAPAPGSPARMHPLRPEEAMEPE
Text: as §5

MLK3 = biological target: T4, MLK3 (Homo sapiens, UniProt Q16584); assay: Kinase inhibition screening (Luceome); type: biochemical; conditions: 10 μM
T4 construct: purchased Luceome Biotechnologies (Tucson, Ariz.)
T4 sequence (Q16584 whole entry): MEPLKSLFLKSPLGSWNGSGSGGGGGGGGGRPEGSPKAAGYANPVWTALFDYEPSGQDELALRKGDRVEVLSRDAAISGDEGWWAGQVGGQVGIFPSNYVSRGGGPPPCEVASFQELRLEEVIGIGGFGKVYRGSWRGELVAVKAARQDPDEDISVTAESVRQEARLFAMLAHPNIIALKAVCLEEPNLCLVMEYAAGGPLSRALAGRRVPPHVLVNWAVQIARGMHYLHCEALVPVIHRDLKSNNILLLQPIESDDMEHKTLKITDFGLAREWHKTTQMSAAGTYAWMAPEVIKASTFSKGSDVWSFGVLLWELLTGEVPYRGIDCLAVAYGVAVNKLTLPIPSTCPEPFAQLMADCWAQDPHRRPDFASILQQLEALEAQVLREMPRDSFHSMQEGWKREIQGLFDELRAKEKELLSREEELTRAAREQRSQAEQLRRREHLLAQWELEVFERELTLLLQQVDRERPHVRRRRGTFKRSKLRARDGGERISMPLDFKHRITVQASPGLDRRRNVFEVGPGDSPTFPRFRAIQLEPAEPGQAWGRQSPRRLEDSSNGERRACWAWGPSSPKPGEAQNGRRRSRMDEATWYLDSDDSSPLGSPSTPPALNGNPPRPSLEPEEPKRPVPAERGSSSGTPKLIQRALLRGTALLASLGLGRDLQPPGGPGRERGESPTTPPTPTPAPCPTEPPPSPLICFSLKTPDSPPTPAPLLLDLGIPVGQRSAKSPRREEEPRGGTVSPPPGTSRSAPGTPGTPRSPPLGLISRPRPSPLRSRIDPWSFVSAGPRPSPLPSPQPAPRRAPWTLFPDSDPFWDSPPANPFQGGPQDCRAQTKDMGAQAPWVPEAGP
Text: as §5

CAMK2D = biological target: T5, CAMK2D (Homo sapiens, UniProt Q13557); assay: Kinase inhibition screening (Luceome); type: biochemical; conditions: 10 μM
T5 construct: purchased Luceome Biotechnologies (Tucson, Ariz.)
T5 sequence (Q13557 whole entry): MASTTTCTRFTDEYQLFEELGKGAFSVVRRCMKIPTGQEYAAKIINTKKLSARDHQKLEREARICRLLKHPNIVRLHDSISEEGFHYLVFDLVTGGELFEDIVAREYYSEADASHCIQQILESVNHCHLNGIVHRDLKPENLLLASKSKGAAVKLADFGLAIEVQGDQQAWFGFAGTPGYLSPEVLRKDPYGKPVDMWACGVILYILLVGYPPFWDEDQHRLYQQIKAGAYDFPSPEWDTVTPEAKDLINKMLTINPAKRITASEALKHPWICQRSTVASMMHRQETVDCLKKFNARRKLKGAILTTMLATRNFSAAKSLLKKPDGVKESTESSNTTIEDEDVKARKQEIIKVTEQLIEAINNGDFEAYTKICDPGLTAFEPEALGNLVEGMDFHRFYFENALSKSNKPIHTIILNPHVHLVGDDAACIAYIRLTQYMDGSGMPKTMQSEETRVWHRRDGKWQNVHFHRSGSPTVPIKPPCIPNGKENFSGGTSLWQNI
Text: as §5

CHEK1 = biological target: T6, CHEK1 (Homo sapiens, UniProt O14757); assay: Kinase inhibition screening (Luceome); type: biochemical; conditions: 10 μM
T6 construct: purchased Luceome Biotechnologies (Tucson, Ariz.)
T6 sequence (O14757 whole entry): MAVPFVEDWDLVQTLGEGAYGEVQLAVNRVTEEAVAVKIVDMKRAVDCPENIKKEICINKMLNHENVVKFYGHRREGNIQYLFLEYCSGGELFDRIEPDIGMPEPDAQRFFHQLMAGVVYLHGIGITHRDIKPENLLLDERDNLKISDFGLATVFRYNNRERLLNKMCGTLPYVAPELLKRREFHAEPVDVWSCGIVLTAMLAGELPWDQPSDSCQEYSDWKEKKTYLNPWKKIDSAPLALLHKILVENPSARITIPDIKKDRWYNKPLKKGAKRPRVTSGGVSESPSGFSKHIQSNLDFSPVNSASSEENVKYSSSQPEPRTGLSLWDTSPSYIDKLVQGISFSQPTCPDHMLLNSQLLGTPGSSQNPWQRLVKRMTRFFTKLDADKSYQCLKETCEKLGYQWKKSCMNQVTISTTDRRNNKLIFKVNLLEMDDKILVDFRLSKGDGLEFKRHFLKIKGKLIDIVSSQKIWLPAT
Text: as §5

CAMKD2B = biological target: T7, CAMKD2B (Homo sapiens, UniProt Q13554); assay: Kinase inhibition screening (Luceome); type: biochemical; conditions: 10 μM
T7 construct: purchased Luceome Biotechnologies (Tucson, Ariz.)
T7 sequence (Q13554 whole entry): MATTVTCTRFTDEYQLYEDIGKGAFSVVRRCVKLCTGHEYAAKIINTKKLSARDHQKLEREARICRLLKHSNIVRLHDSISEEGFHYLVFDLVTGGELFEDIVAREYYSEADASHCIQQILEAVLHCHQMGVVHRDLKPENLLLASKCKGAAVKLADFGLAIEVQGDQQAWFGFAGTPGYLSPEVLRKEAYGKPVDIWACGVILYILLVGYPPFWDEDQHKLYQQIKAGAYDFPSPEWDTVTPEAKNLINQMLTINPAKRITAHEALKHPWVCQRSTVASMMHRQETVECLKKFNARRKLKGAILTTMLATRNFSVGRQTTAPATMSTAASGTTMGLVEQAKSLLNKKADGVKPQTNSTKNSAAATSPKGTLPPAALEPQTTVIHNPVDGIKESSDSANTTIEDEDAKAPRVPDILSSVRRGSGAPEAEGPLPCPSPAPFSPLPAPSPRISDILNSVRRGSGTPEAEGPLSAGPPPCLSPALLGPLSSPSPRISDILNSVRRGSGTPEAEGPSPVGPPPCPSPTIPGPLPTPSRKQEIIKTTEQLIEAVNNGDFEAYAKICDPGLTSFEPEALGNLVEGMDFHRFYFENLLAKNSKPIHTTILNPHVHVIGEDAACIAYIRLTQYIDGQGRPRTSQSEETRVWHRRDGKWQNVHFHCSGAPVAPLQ
Text: as §5

Structure (SMILES) | Early Apoptotic (%) (HeLa cells [1]; HeLa, 24 hours) | Late Apoptotic (%) (HeLa cells [1]; HeLa, 24 hours) | Live (%) (HeLa cells [1]; HeLa, 24 hours) | Necrotic (%) (HeLa cells [1]; HeLa, 24 hours) | IC50 (CEM-C7) [µM] | fold more sensitive to IR exposure than cells treated with IR alone (HeLa cells [2]) [fold] | IC50 (HCT-116) [µM] | IC50 (HeLa) [µM] | IC50 (MCF-7) [µM] | number of γH2AX foci 30 minutes post IR exposure (γH2AX foci in HeLa cells) | % Inhibition PDGFRB (PDGFRB) [%] | % Inhibition AURKB (AURKB) [%] | % Inhibition CAMKK2 (CAMKK2) [%] | % Inhibition MLK3 (MLK3) [%] | % Inhibition CAMK2D (CAMK2D) [%] | % Inhibition CHEK1 (CHEK1) [%] | % Inhibition CAMKD2B (CAMKD2B) [%] | further results
CC(C)(C)OC(=O)n1ccc2c[c]([Au-][P+](c3ccccc3)(c3ccccc3)c3ccccc3)ccc21 [Compound 3, 5-{Triphenylphosphine aurate(I)}-tert-butyl1H-indole-1-carboxylate] | 8.8% and 8.8 +/− 0.7% | 4.3% and 4.3 +/− 1.8% | 84.4 +/− 3.0% | 2.4 +/− 0.8% | 19.9 | ~4 | 11.5 | 2.5 | 16.2 | lower numbers of γH2AX foci | 8.1 | 11.1 | 0 | 31.2 | 0 | 0 | 0 | fold increase in early stage apoptosis compared to DMSO (HeLa cells [1]; 24 hours): 6 fold; fold increase in late stage apoptosis compared to DMSO (HeLa cells [1]; 24 hours): ~10 fold; dose-modifying factor (HeLa cells [2]; ionizing radiation, HeLa): 4
CC(C)(C)OC(=O)n1ccc2c[c]([Au-][P+](C3CCCCC3)(C3CCCCC3)C3CCCCC3)ccc21 [Compound 4, 5-{Tricyclohexylphosphine aurate(I)}-tert-butyl1H-indole-1-carboxylate] | 5.3% and 5.3 +/− 1.1% | 8.1% and 8.1 +/− 1.8% | 68.4 +/− 0.8% | 18.8 +/− 2.5% | 9.7 | ~4 | 22.8 | 16.2 | 34.4 | increase in the number of γH2AX foci | 15.2 | 24.5 | 7.9 | 43 | 0 | 0 | 0 | fold higher amount of late-stage apoptotic cells compared to compound 3 (HeLa cells [1]; HeLa): 2 fold; fold higher amount of necrosis compared to compound 3 (HeLa cells [1]; HeLa): ~9 fold; γH2AX foci 4 hours after IR exposure (γH2AX foci in HeLa cells): a significant number of γH2AX foci persist
